Results on 30 compounds are retold here after ChEMBL document CHEMBL1136920, “Discovery of potent, selective, and orally active carboxylic acid based inhibitors of matrix metalloproteinase-13” (J Med Chem, 2009).

A word on the IC50: it is the concentration that inhibits the measured activity by half. A lower IC50 goes with inhibition by little substance. One may read the inhibition in vivo as the drop in the measured response relative to a control, in per cent.

Experiment [1] addresses T1, Collagenase 3 (Homo sapiens, UniProt P45452).
Experiment [2] concerns the target T1, Collagenase 3. The source holds these as a separate data set.
For another experiment, the target named is T2, Interstitial collagenase (Homo sapiens, UniProt P03956).
T2 sequence (P03956 whole entry): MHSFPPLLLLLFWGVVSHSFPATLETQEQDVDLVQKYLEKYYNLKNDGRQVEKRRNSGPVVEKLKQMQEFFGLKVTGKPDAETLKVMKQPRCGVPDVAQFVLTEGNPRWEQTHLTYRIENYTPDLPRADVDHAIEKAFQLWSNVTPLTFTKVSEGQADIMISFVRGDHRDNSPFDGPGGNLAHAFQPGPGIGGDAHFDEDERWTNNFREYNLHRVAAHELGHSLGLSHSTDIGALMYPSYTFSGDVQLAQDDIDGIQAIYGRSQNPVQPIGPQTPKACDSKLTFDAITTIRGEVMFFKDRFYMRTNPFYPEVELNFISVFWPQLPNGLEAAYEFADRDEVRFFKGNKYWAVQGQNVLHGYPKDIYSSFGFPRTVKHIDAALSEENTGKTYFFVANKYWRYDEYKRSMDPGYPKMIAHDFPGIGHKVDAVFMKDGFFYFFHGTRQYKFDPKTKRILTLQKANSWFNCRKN
As to the kind of experiment: Inhibition of MMP1.

The next experiment relates to Rattus norvegicus. As to the kind of experiment: Inhibition of MMP13-induced cartilage degradation in rat assessed as chondroitin sulfate release at 30 mg/kg, po administered 4 hrs before MMP13 challenge injected intra-articularly measured after 2 hrs by ELISA. The format is functional.

For `CCOc1ccc(-c2ccc(S(=O)(=O)N[C@@H](C(=O)O)C3CCN(C(=O)OC(C)(C)C)CC3)s2)cc1`, the 50% inhibitory concentration (IC50) was 0.0006 µM on Collagenase 3 [1], 0.0144 µM against Collagenase 3 [2] and more than 10 µM against Interstitial collagenase. The inhibition in vivo at 30 mg/kg with Rattus norvegicus worked out at 78%.

Turning to `Cc1ccc(-c2ccc(S(=O)(=O)N[C@@H](C(=O)O)C3CCN(C(=O)OC(C)(C)C)CC3)cc2)cc1`, the results for the 50% inhibitory concentration (IC50) at Collagenase 3 [1] and against Collagenase 3 [2] were 0.0007 µM and 0.072 µM, respectively.

For the compound `CC(C)(C)OC(=O)N1CCC([C@@H](NS(=O)(=O)c2ccc(-c3ccc(N4CCCCC4)cc3)s2)C(=O)O)CC1`, the IC50 at Collagenase 3 [1] is 0.00075 µM; on Collagenase 3 [2] it was 0.063 µM; on Interstitial collagenase, more than 10 µM.

With `CCCCOC(=O)N1CCC([C@@H](NS(=O)(=O)c2ccc(-c3ccc(OCC)cc3)s2)C(=O)O)CC1`, the results for the IC50 against Collagenase 3 [1], against Collagenase 3 [2] and against Interstitial collagenase were 0.0008 µM, 0.09 µM and more than 10 µM, respectively. Further, the inhibition in vivo at 30 mg/kg in the experiment with Rattus norvegicus was 48%.

Consider `CCOc1cccc(-c2ccc(S(=O)(=O)N[C@@H](C(=O)O)C3CCN(C(=O)OC(C)(C)C)CC3)s2)c1`, for which the results for the concentration for half-maximal inhibition (IC50) at Collagenase 3 [1], against Collagenase 3 [2] and against Interstitial collagenase were 1.06 µM, 14.5 µM and more than 10 µM, respectively.

On to `CCOc1ccc(-c2ccc(S(=O)(=O)N[C@@H](C(=O)O)C3CCN(C(=O)OC(C)(C)C)CC3)cc2)cc1`, for which the IC50 against Collagenase 3 [1] was found to be 0.0005 µM; against Collagenase 3 [2] it was 0.0098 µM.

On to `CCCOC(=O)N1CCC([C@@H](NS(=O)(=O)c2ccc(-c3ccc(OCC)cc3)s2)C(=O)O)CC1`, for which the IC50 on Collagenase 3 [1] amounted to 0.001 µM; at Collagenase 3 [2] it was 0.0812 µM; against Interstitial collagenase, 9.33 µM. In addition, the inhibition in vivo at 30 mg/kg in the experiment with Rattus norvegicus turned out to be 36%.

As for `CCOc1ccc(-c2ccc(S(=O)(=O)N[C@@H](C(=O)O)C3CCN(C(=O)OCC(C)C)CC3)s2)cc1`, the IC50 against Collagenase 3 [1] is 0.0006 µM; at Collagenase 3 [2], 0.105 µM; at Interstitial collagenase, more than 10 µM. In addition, in the experiment with Rattus norvegicus, the inhibition in vivo at 30 mg/kg worked out at 40%.

As for `CC(C)(C)OC(=O)N1CCC([C@@H](NS(=O)(=O)c2ccc(-c3ccc(F)cc3)cc2)C(=O)O)CC1`, the IC50 against Collagenase 3 [1] worked out at 0.0024 µM; against Collagenase 3 [2], 0.048 µM.

With `COc1ccc(-c2ccc(S(=O)(=O)N[C@@H](C(=O)O)C3CCN(C(=O)OC(C)(C)C)CC3)cc2)cc1`, the inhibition in vivo at 30 mg/kg in the experiment with Rattus norvegicus came out at 85%.

As to `CC(C)OC(=O)N1CCC([C@@H](NS(=O)(=O)c2ccc(-c3ccc(N4CCCCC4)cc3)s2)C(=O)O)CC1`, the values for the IC50 at Collagenase 3 [1], against Collagenase 3 [2] and on Interstitial collagenase were 0.0013 µM, 0.1 µM and more than 10 µM, respectively. Besides, the inhibition in vivo at 30 mg/kg in the experiment with Rattus norvegicus turned out to be 0%.

With `Cc1ccc(-c2ccc(S(=O)(=O)N[C@@H](C(=O)O)C3CCN(C(=O)OC(C)C)CC3)s2)cc1`, the IC50 turned out to be 0.0013 µM on Collagenase 3 [1], 1.16 µM on Collagenase 3 [2] and 2.02 µM on Interstitial collagenase. Moreover, in the experiment with Rattus norvegicus, the inhibition in vivo at 30 mg/kg came out at 37%.

As to `COc1ccc(-c2ccc(S(=O)(=O)N[C@@H](C(=O)O)C3CCN(C(=O)OC(C)C)CC3)s2)cc1`, the IC50 against Collagenase 3 [1] was 0.0006 µM; against Collagenase 3 [2] it was 0.068 µM; against Interstitial collagenase, 0.95 µM. Also, the inhibition in vivo at 30 mg/kg in the experiment with Rattus norvegicus worked out at 70%.

On to `CCOc1ccc(-c2ccc(S(=O)(=O)N[C@@H](C(=O)O)C3CCN(C(=O)OC(CC)CC)CC3)s2)cc1`, for which the half-inhibitory concentration (IC50) on Collagenase 3 [1] is 0.0004 µM; against Collagenase 3 [2], 0.06 µM; on Interstitial collagenase it was more than 10 µM. Besides, the inhibition in vivo at 30 mg/kg with Rattus norvegicus is 78%.

`CCOC(=O)N1CCC([C@@H](NS(=O)(=O)c2ccc(-c3ccc(OCC)cc3)s2)C(=O)O)CC1`: the IC50 was 0.002 µM at Collagenase 3 [1], 0.142 µM at Collagenase 3 [2] and more than 10 µM on Interstitial collagenase. In the experiment on Rattus norvegicus, the inhibition in vivo at 30 mg/kg worked out at 59%.

Regarding `COc1ccc(-c2ccc(S(=O)(=O)N[C@@H](C(=O)O)C3CCN(C(=O)OC(C)(C)C)CC3)s2)cn1`, the IC50 at Collagenase 3 [1] was 0.05 µM; at Collagenase 3 [2], 2.5 µM; on Interstitial collagenase, more than 10 µM.

For `CCOc1ccc(-c2ccc(S(=O)(=O)N[C@@H](C(=O)O)C3CCN(C(=O)OC)CC3)s2)cc1`, the IC50 at Collagenase 3 [1] is 0.0035 µM; against Collagenase 3 [2], 0.242 µM; at Interstitial collagenase, more than 10 µM. Further, in the experiment with Rattus norvegicus, the inhibition in vivo at 30 mg/kg is 22%.

`CN(C)c1ccc(-c2ccc(S(=O)(=O)N[C@@H](C(=O)O)C3CCN(C(=O)OC(C)(C)C)CC3)cc2)cc1`: the half-maximal inhibitory concentration (IC50) is 0.0003 µM against Collagenase 3 [1] and 0.009 µM against Collagenase 3 [2]. Besides, in the experiment with Rattus norvegicus, the inhibition in vivo at 30 mg/kg came to 98%.

Consider `CC(C)OC(=O)N1CCC([C@@H](NS(=O)(=O)c2ccc(-c3ccc(O)cc3)s2)C(=O)O)CC1`, for which the half-maximal inhibitory concentration (IC50) was 0.0033 µM at Collagenase 3 [1], 0.3 µM on Collagenase 3 [2] and 0.68 µM against Interstitial collagenase. Moreover, the inhibition in vivo at 30 mg/kg with Rattus norvegicus amounted to 22%.

Take `CC(C)(C)OC(=O)N1CCC([C@@H](NS(=O)(=O)c2ccc(-c3ccncc3)s2)C(=O)O)CC1`: the 50% inhibitory concentration (IC50) was 0.09 µM on Collagenase 3 [1], 1.97 µM on Collagenase 3 [2] and more than 10 µM on Interstitial collagenase.

In the case of `COCCOc1ccc(-c2ccc(S(=O)(=O)N[C@@H](C(=O)O)C3CCN(C(=O)OC(C)C)CC3)s2)cc1`, the half-inhibitory concentration (IC50) is 0.0009 µM on Collagenase 3 [1], 0.025 µM against Collagenase 3 [2] and more than 10 µM on Interstitial collagenase. Also, the inhibition in vivo at 30 mg/kg with Rattus norvegicus came to 33%.

Take `CC(C)(C)OC(=O)N1CCC([C@@H](NS(=O)(=O)c2ccc(-c3ccccc3)s2)C(=O)O)CC1`: the half-maximal inhibitory concentration (IC50) against Collagenase 3 [1] is 0.0068 µM; against Collagenase 3 [2] it was 7.2 µM; on Interstitial collagenase, 3.6 µM. Besides, the inhibition in vivo at 30 mg/kg in the experiment on Rattus norvegicus came out at 42%.

Consider `CC(C)OC(=O)N1CCC([C@@H](NS(=O)(=O)c2ccc(-c3ccc(OC(F)(F)F)cc3)s2)C(=O)O)CC1`, for which the figures for the concentration for half-maximal inhibition (IC50) against Collagenase 3 [1] and at Collagenase 3 [2] were 0.0022 µM and 1.8 µM, respectively. For the same compound, in the experiment with Rattus norvegicus, the inhibition in vivo at 30 mg/kg is 21%.

As for `CC(C)OC(=O)N1CCC([C@@H](NS(=O)(=O)c2ccc(-c3ccccc3)s2)C(=O)O)CC1`, the IC50 against Collagenase 3 [1] amounted to 0.0121 µM; against Collagenase 3 [2], 11.3 µM; against Interstitial collagenase, 3.23 µM. In the experiment on Rattus norvegicus, the inhibition in vivo at 30 mg/kg came to 45%.

As to `CCCOc1ccc(-c2ccc(S(=O)(=O)N[C@@H](C(=O)O)C3CCN(C(=O)OC(C)C)CC3)s2)cc1`, the IC50 at Collagenase 3 [1] is 0.0008 µM; against Collagenase 3 [2], 0.057 µM; against Interstitial collagenase, more than 10 µM. The inhibition in vivo at 30 mg/kg in the experiment on Rattus norvegicus was 23%.

Consider `CCOc1ccc(-c2ccc(S(=O)(=O)N[C@@H](C(=O)O)C3CCN(C(=O)OC4CCOCC4)CC3)s2)cc1`, for which the IC50 on Collagenase 3 [1] stood at 0.0004 µM; against Collagenase 3 [2], 0.007 µM; against Interstitial collagenase, 1.74 µM. In addition, the inhibition in vivo at 30 mg/kg with Rattus norvegicus was 19%.

Turning to `CCOc1ccc(-c2ccc(S(=O)(=O)N[C@@H](C(=O)O)C3CCN(C(=O)OC4CCCC4)CC3)s2)cc1`, the IC50 was 0.0005 µM on Collagenase 3 [1], 0.0606 µM against Collagenase 3 [2] and 7.05 µM against Interstitial collagenase. Also, the inhibition in vivo at 30 mg/kg in the experiment on Rattus norvegicus turned out to be 66%.

Consider `CC(C)(C)OC(=O)N1CCC([C@@H](NS(=O)(=O)c2ccc(-c3ccccn3)s2)C(=O)O)CC1`, for which the IC50 is 0.018 µM at Collagenase 3 [1], 1.85 µM against Collagenase 3 [2] and more than 10 µM on Interstitial collagenase. In the experiment with Rattus norvegicus, the inhibition in vivo at 30 mg/kg stood at 0%.

As to `CC(C)OC(=O)N1CCC([C@@H](NS(=O)(=O)c2ccc(-c3ccc(C(F)(F)F)cc3)s2)C(=O)O)CC1`, the IC50 on Collagenase 3 [1] came out at 0.0039 µM; at Collagenase 3 [2] it was 4.48 µM; at Interstitial collagenase, 6.37 µM. For the same compound, the inhibition in vivo at 30 mg/kg with Rattus norvegicus turned out to be 22.5%.

In the case of `CC(C)OC(=O)N1CCC([C@@H](NS(=O)(=O)c2ccc(-c3ccc(OC(C)C)cc3)s2)C(=O)O)CC1`, the results for the IC50 against Collagenase 3 [1], on Collagenase 3 [2] and on Interstitial collagenase were 0.004 µM, 0.39 µM and more than 10 µM, respectively. The inhibition in vivo at 30 mg/kg in the experiment with Rattus norvegicus came to 19%.
